Source: patent US9808434B2, “Compound for treating cancer and diabetes” (CITY OF HOPE, priority 2011, dated 2017)
“Also recorded” adds a separate entry of the source.

How the values were obtained:
[1] = test system: H358 and H520 cells; test: COH-SR4 cytotoxicity after siRNA knock-down of AMPK, XTT; assay type: cell-based, human
Description: The effects of COH-SR4 on cell viability were assessed in quadruplicate samples using the 2,3-bis (2-methoxy-4-nitro-5-sulfophenly)-5-[(phenylamino) carbonyl]-2H-tetrazolium hydroxide (XTT) assay. Briefly, 20,000 cells were seeded and incubated in 96-well, flat-bottomed plates in 10% FBS-supplemented culture medium 24 h before drug treatment. After 24 h incubation at 37° C., cells were then exposed to the indicated concentrations of drug at 37° C. in 5% CO2 for 48 h. The medium was removed and replaced with 100 μL fresh medium containing 50 μL of the activated-XTT solution to each well, and the cells were further cultured in the CO2 incubator at 37° C. for 4 h. Absorbance was determined on a plate reader at 475 nm.
AMPK was knocked down by siRNA and assessed the impact on COH-SR4-induced cytotoxicity. […] Thus, the in-vitro analyses of critical signaling proteins of cell proliferation further supported the anti-cancer effects of COH-SR4 in lung cancer cells.

[2] = test system: CD133 sorted PBT-017 glioma cells; test: Killing of CD133 sorted PBT-017 glioma cells; assay type: cell-based; conditions: 0-100 μM, 4 days
Description: CD133 positive glioma stem cells were sorted by FACS. Unsorted cells, CD133 positive cells, and CD133 negative PBT-017 glioma cells were treated with COH-SR4 at various concentrations (0˜100 μM) for 4 days, respectively. Data were represented as a ratio to untreated control, and plotted as mean±SEM (n=12) obtained from 2˜3 experiments (FIG. 39A).

[3] = test system: H358 cells; test: MTT assay, H358; assay type: cell-based; conditions: Homo sapiens, NCI-H358, 48 h
Description: (§1) Cell density measurements were performed using a hemocytometer to count reproductive cells resistant to staining with trypan blue. Approximately 20,000 cells were plated into each well of 96-well flat-bottomed micro-titer plates. After 12 h or 24 h incubation at 37° C., medium containing either COH-SR4 (ranging 0-200 μM) or elesclomol (ranging 0-20 μM) were added to the cells. After 24 h, 48 h or 96 h incubation, 20 μL of 5 mg/mL MTT were introduced to each well and incubated for 2 h. The plates were centrifuged and medium was decanted. Cells were subsequently dissolved in 100 μl DMSO with gentle shaking for 2 h at room temperature, followed by measurement of OD570 (91).
(§2) The effect of COH-SR4 was first examined in a NCI panel of cancer cell lines, the results of which indicated good activity of COH-SR4 towards lung cancer (FIG. 78A). […] Values are presented as mean±SD from two separate determinations with eight replicates each (n=16) (FIG. 78B). […] Standard colony-forming assay was performed and the colonies were counted using Innotech Alpha Imager HP. […] TUNEL assay was performed using Promega fluorescence detection kit and examined using Zeiss LSM 510 META laser-scanning fluorescence microscope with filters 520 and 620 nm. […]

[4] = test system: isolated mouse liver mitochondria; test: Oxygen consumption rate in isolated liver mitochondria; conditions: increasing concentrations
Description: Mitochondria were isolated from the livers of 10 week old male C57BL/6 mice. Mice were euthanized by CO2 inhalation followed by cervical dislocation. Livers were removed, minced with scissors, and immediately placed in ˜10 volumes of ice-cold mitochondria isolation medium (250 mM sucrose, 10 mM Tris-HCl, 1 mM EGTA, 1% fatty acid/endotoxin-free BSA, pH 7.4). The presence of BSA in the medium allowed the endogenous free fatty acids to be chelated from the homogenate suspension. The tissues were homogenized using 25-30 strokes in Potter-Elvehjem tissue grinder. Following centrifugation at 800×g for 10 min at 4° C., the fats/lipids were carefully aspirated, and the remaining supernatant was filtered through sterile 0.40 micron nylon mesh membrane and centrifuged at 8,000×g for 10 min at 4° C. […] The mitochondrial protein concentration was determined by the DC Protein Assay kit (Bio-Rad, Hercules, Calif.) with BSA as a standard. […]
Isolated mouse liver mitochondria (2 μg/well or 5 μg/well) were seeded on Seahorse 96-well plate, and respiration (OCR) was measured on mitochondria respiring either on pyruvate (10 mM) and malate (2 mM) or succinate (10 mM) and rotenone (2 μM) using a Seahorse 96 Flux Analyzers according to Rogers et al (90).

[5] = test system: H520 cells; test: MTT assay, H520; assay type: cell-based; conditions: Homo sapiens, NCI-H520, 48 h
Description: as §1, §2

[6] = test system: U251 glioma cells; test: Combination index with chemotherapy drugs, U251; assay type: cell-based
Description: Effects of combination of COH-SR4 and a chemotherapy drug such as TMZ, SN38, CPT-11, and 5-FU were studied by combination index (CI) theorem and plot using the method described in Chou (“Experimental Design, and Computerized Simulation of Synergism and Antagonism in Drug Combination Studies,” Pharmacological Reviews, Vol. 58, No. 3), which is incorporated herein by reference in its entirety.
COH-SR4 and a chemotherapy drug (TMZ, SN38, CPT-11, or 5-FU) were dissolved in DMSO individually, and then diluted to the appropriate concentration in the same cell culture media before applying to cells of each cell line. After 4 days, the amount of ATP present in the cell lysates were assessed using Progema's CellGlo kit. The CI of each combination of COH-SR4 and the chemotherapy drug was calculated and plotted against the concentration of COH-SR4 for each concentration of the chemotherapy drug used.

[7] = test system: 3T3-L1 cells; test: Adipocyte differentiation, Oil Red O staining; assay type: cell-based, mouse; conditions: preadipocytes 7 days in differentiating media (DM) + compound
Description: Two-day post-confluent 3T3-L1 preadipocyte cells were allowed to differentiate for 7 days in the presence of nothing, DM only, DM+ a test compound (COH-SR1, COH-SR2, COH-SR3, COH-SR4, COH-SR7, LR23 or LR59), or DM+ a positive control (TSA, C75, or Apicidin).
3T3-L1 preadipocytes cells were treated with differentiating media (DM) with COH-SR4 (1 μM, 3 μM, or 5 μM) or without for 7 days. […] As used in FIG. 9C, U=undifferentiated, D=differentiated with cocktail media.

[8] = Metabolic effects in Type 2 diabetes db/db mice; assay type: in vivo, mouse; conditions: five weeks
Description: All animal experiments were carried out in accordance with the protocols approved by the Institutional Animal Care and Use Committee of the City of Hope. Nine-week old male C57BL/6J mice fed on high fat diet (HFD, 60% fat) and 10-week old db/db mice were given COH-SR4 (5 mg/kg B.W.) or vehicle (corn oil) via oral gavage every other day for six and five weeks, respectively. Oral glucose tolerance test was performed on animals after an overnight fast. All other metabolic parameters were measured at the end of study. Liver samples were stained with H&E and Oil Red O.
All data represented are mean±SEM. *P<0.05, **P<0.01 vs. LFD or db/+; ^#P<0.05, ^##P<0.01 vs. HFD or db/db. n=12 animals per group for HFD mice. LFD=low fat diet (lean), HFD=high fat diet (obese). n=8 animals per group for db/db mice.
Representative mice in each treatment group (db/+, db/db, db/db treated with COH-SR4 (db/db+SR4)) depicted gross images of whole body shape (top) and abdominal fat (bottom) (FIG. 85H).

For `O=C(Nc1cc(Cl)cc(Cl)c1)Nc1cc(Cl)cc(Cl)c1` [COH-SR4, 1,3-bis(3,5-dichlorophenyl) urea], the “cytotoxicity of COH-SR4 after knock-down of AMPK” value [1] was “significant reversal in the cytotoxicity”, the “killing of CD133 positive, negative and unsorted cells” value [2] was “effective in killing the CD133 positive glioma stem cells” and the IC50 [3] was 2100 ± 200 nM. For the same compound, the “OCR of mitochondria respiring on pyruvate and malate or succinate-rotenone” value [4] was “dose-dependently increased OCR of mitochondria”, the IC50 [5] was 2400 ± 300 nM and the “combination effect (CI) with CPT-11” value ([6]; COH-SR4 <0.5 μM + CPT-11 <0.125 μM) was “Synergism”. For the same compound, the “combination effect (CI) with SN-38” value ([6]; COH-SR4 <0.5 μM + SN-38 <0.001 μM) was “Synergism”, the “combination effect (CI) with TMZ” value ([6]; COH-SR4 <0.5 μM + TMZ 12.5 μM, 4 days) was “Synergism” and the “combination effect (CI) with SN-38” value ([6]; COH-SR4 >0.5 μM + SN-38 <0.003 μM) was “Additive effects”. For the same compound, the “combination effect (CI) with TMZ” value ([6]; COH-SR4 >0.65 μM + TMZ 100 μM) was “Additive effects”, the “combination effect (CI) with CPT-11” value ([6]; COH-SR4 >0.675 μM + CPT-11 >0.5 μM) was “Additive effects” and the “differentiation and accumulation of lipid droplets (Oil Red O staining)” value [7] was “dose-dependently inhibited differentiation and accumulation of lipid droplets; also recorded: prevented accumulation of fat droplets”. The body weight ([8]; 5 mg/kg oral every other day) was “decreased body weight”, the HbA1c levels [8] was “lower HbA1c levels” and the fasting blood glucose [8] was “improved fasting blood glucose”. For the same compound, the glucose tolerance [8] was “improved”, the hepatic steatosis [8] was “reduced” and the hepatic triglycerides [8] was “reduced hepatic triglycerides”.
